Target: T1, PTK2B (FAK2) (Homo sapiens, UniProt Q14289)
T1 construct: purchased Thermo Fisher Scientific (Life Technologies) SelectScreen
Assay: SelectScreen Z'LYTE
Assay type: biochemical
Method in brief: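 SelectScreen broad panel; activity (Z'LYTE, Adapta) plus binding formats. ATP: Km app for CSF1R Z'LYTE; 10 for CAMK1 Adapta. Readout = % per kinase.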

T1 sequence (Q14289 whole entry): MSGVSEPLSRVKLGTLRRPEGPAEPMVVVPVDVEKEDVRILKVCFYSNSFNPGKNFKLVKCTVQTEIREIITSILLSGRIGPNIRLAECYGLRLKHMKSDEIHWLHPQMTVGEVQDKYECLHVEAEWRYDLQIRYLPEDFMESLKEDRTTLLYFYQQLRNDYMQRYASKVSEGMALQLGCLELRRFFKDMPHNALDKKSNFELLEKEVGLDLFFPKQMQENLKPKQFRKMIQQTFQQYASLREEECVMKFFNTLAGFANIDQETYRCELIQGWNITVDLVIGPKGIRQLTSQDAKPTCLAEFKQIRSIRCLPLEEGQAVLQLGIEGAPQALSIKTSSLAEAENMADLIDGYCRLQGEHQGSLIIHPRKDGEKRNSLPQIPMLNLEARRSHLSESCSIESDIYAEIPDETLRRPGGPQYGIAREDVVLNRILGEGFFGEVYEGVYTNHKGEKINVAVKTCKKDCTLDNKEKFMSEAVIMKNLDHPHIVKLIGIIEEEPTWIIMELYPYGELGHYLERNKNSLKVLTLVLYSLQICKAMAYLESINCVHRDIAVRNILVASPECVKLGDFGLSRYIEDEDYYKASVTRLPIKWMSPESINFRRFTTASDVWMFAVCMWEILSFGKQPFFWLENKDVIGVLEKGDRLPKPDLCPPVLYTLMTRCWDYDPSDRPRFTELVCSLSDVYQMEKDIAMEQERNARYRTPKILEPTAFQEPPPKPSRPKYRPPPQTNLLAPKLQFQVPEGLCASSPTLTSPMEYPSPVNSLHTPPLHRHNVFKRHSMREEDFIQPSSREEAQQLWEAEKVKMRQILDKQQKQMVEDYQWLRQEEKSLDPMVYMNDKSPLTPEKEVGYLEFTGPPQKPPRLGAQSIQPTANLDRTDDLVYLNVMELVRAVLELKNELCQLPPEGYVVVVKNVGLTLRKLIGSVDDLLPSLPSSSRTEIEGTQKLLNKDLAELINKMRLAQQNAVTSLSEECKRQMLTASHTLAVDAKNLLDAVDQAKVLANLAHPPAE

CN(C(=O)CN1CCOCC1)c1ccc2sc3c(-c4cccc5c(=O)cc(N6CC7CCC(C6)O7)oc45)cccc3c2c1 [NU5455]
inhibition at 1 µM: 4.2%
